Laboratory results reported in ChEMBL document CHEMBL1938310, “Discovery of novel antitubercular 1,5-dimethyl-2-phenyl-4-([5-(arylamino)-1,3,4-oxadiazol-2-yl]methylamino)-1,2-dihydro-3H-pyrazol-3-one analogues” (Bioorg Med Chem Lett, 2012).
Converted amounts (≈) assume the structure as drawn.

Experiments:
[1] = test system: Mycobacterium tuberculosis; test: Antimycobacterial activity against Mycobacterium tuberculosis H37Rv by two fold agar dilution method; format: functional
Vero = test: Cytotoxicity against African green monkey Vero cells at 62.5 ug/ml after 72 hrs by MTT assay; format: cell-based; settings: chlorocebus sabaeus

Row | Structure (SMILES) | MIC [1] [µg/mL] | Activity (Vero)
1 | CCOc1ccc(Nc2nnc(CNc3c(C)n(C)n(-c4ccccc4)c3=O)o2)cc1 | > 12.5 | 
2 | Cc1c(NCc2nnc(Nc3ccc(F)cc3)o2)c(=O)n(-c2ccccc2)n1C | 0.78 (≈ 1.98 µM) | Non-toxic
3 | Cc1c(NCc2nnc(Nc3ccc(S(N)(=O)=O)cc3)o2)c(=O)n(-c2ccccc2)n1C | 3.12 (≈ 6.85 µM) | Non-toxic
4 | Cc1c(Cl)cccc1Nc1nnc(CNc2c(C)n(C)n(-c3ccccc3)c2=O)o1 | 10 (≈ 23.5 µM) | 
5 | COc1ccc(Nc2nnc(CNc3c(C)n(C)n(-c4ccccc4)c3=O)o2)cc1 | 12.5 (≈ 30.8 µM) | 
6 | COc1ccc(Nc2nnc(CNc3c(C)n(C)n(-c4ccccc4)c3=O)o2)c(OC)c1 | > 12.5 | 
7 | Cc1c(NCc2nnc(Nc3ccccc3)o2)c(=O)n(-c2ccccc2)n1C | 10 (≈ 26.6 µM) | 
8 | Cc1c(NCc2nnc(Nc3ccc([N+](=O)[O-])cc3)o2)c(=O)n(-c2ccccc2)n1C | 3.12 (≈ 7.4 µM) | Non-toxic
9 | Cc1ccc(Nc2nnc(CNc3c(C)n(C)n(-c4ccccc4)c3=O)o2)c(C)c1 | 12.5 (≈ 30.9 µM) | 
10 | NNC(=O)c1ccncc1 [ISONIAZID] | 0.78 (≈ 5.69 µM) | 
11 | Cc1cccc(C)c1Nc1nnc(CNc2c(C)n(C)n(-c3ccccc3)c2=O)o1 | 10 (≈ 24.7 µM) | 
12 | Cc1c(NCc2nnc(Nc3ccc(F)c(Cl)c3)o2)c(=O)n(-c2ccccc2)n1C | 6.25 (≈ 14.6 µM) | Non-toxic
13 | Cc1ccc(Nc2nnc(CNc3c(C)n(C)n(-c4ccccc4)c3=O)o2)cc1 | 12.5 (≈ 32 µM) | 
14 | Cc1c(NCc2nnc(Nc3ccc(Cl)cc3)o2)c(=O)n(-c2ccccc2)n1C | 6.25 (≈ 15.2 µM) | Non-toxic
15 | Cc1c(NCc2nnc(Nc3ccccc3Cl)o2)c(=O)n(-c2ccccc2)n1C | 10 (≈ 24.3 µM) | 
16 | Cc1c(NCc2nnc(Nc3ccc(Br)cc3)o2)c(=O)n(-c2ccccc2)n1C | 6.25 (≈ 13.7 µM) | Non-toxic
17 | Cc1c(NCc2nnc(Nc3ccc(O)cc3)o2)c(=O)n(-c2ccccc2)n1C | 10 (≈ 25.5 µM) | 
